Experimental data as given in PMC9570594, “Development of Novel Pyridine-Thiazole Hybrid Molecules as Potential Anticancer Agents” (Molecules, 2022).
Where two headings read alike, the source gives them in different places.

Tests used:
[1] = tested on: MCF-7 cells; assay: PARP-1 inhibition in vitro: MTT after Fluzoparib pretreatment; format: cell-based, human; settings: for IC50: Homo sapiens, MCF7
Experimental: Taking into account the above data, PARP1 inhibition in vitro was investigated using pretreatment of the MCF-7 cells with the Fluzoparib, a potent PARP1 inhibitor in the non-toxic concentrations of 5, 10, and 15 µM. It had no significant growth inhibitory effect in such doses, and a reduction of cell viability by only 10–12% was observed compared to control (non-treated) cells. […] The preincubation step was used to bind PARP1 molecules, which were the potential targets of the studied compounds and to test if it would affect the activity of 3 and 4. […] The preincubation of cells with the Fluzoparib decreased their sensitivity to the compound 3 treatment in a less pronounced manner, compared with the effect of the compound 4. […] Changes in structure of the started compound 3 may cause an enhancement of the ability of molecule 4 to inhibit the activity of PARP1.
To determine PARP inactivation, the MCF-7 cells were pretreated for 2 h in the non-toxic concentrations of 5, 10, 15 µM of the Fluzoparib (Med Chem Express, Monmouth Junction, NJ, USA), a potent PARP1 inhibitor used in the chemotherapy. Then, the medium was removed and increasing doses of the compounds 3 and 4 were added and cells were incubated for the next 72 h. The IC50 values of compounds were determined by the MTT assay, as described.

[2] = tested on: human epidermal keratinocytes of HaCaT line; assay: MTT assay of cell viability; settings: 72 h
[3] = tested on: KB3-1 cells; assay: Fluorescent microscopy of morphological changes (Hoechst 33342/PI); format: cell-based, human; settings: 48 h
Experimental: In addition, we observed multinucleated giant cells. […] The condensed chromatin, a characteristic feature of apoptosis, and dead cells were observed under the action of all studied compounds.
KB3-1 cells were seeded in the 12-well plates (CytoONE, STARLAB International GmbH, Hamburg, Germany) on glass microscopic slides and incubated overnight. Studied compounds were added to cells in the following concentrations: the compounds 3, 4 and cisplatin—5 µM/mL, doxorubicin—1 µM/mL. Cells were incubated for the next 48 h. Chromatin material of living and apoptotic cells was stained with the DNA-specific fluorescent dye Hoechst 33342 (Sigma-Aldrich, Burlington, MA, USA) and the DNA/RNA-specific fluorescent dye Propidium iodide (PI, Sigma, Burlington, MA, USA). Fluorochromes were added to cultured cells at final concentrations 0.2–0.5 μg/mL for Hoechst 33342 and 0.1 μg/mL—for PI. Images were made with a fluorescent Zeiss microscope (Carl Zeiss, Oberkochen, Germany). Magnification ×400. Microphotographs were additionally analyzed using ImagePro7N software.

[4] = tested on: MCF-7 cells; assay: Clonogenic assay; format: cell-based, human; settings: MCF-7, positive control, concentration not given, 10 days
Experimental: This assay essentially tests every cell in the population for its ability to undergo “unlimited” division. […] At 1 µM concentration, it reduced the ability of the MCF-7 single cell to grow into a colony to 36%. […] With a concentration equivalent to 10 µM of the compound 4, the DMSO increased the cell’s ability to grow in colony.
MCF-7 cells were seeded in triplicate in 6-well plates (CytoONE, STARLAB International GmbH, Germany) at a density of 500 cells per well. After 24 h incubation, the compound 4 was added in 1 and 10 μM concentrations and cells were treated for 10 days. Colonies containing ≥ 50 cells were fixed with 50% (v/v) methanol in the PBS and stained with crystal violet (Sigma-Aldrich, Burlington, MA, USA). Stained colonies were counted and expressed as a fraction of the untreated control.

[5] = tested on: HCT-116 p53 (−/−) colon cancer cells; assay: MTT assay of cell viability; settings: Homo sapiens, HCT-116, 72 h
Excerpt: The cell lines used in our work were kindly provided by a Collection at the Institute of Molecular Biology and Genetics, National Academy of Sciences of Ukraine (Kyiv, Ukraine).

[6] = tested on: KB3-1 (cervix); assay: MTT assay of cell viability
[7] = tested on: MCF-7 (breast); assay: MTT assay of cell viability
[8] = tested on: A549 (lung); assay: MTT assay of cell viability; settings: Homo sapiens, A549, 72 h
[9] = tested on: Jurkat (leukemia); assay: MTT assay of cell viability; settings: Homo sapiens, 72 h
[10] = tested on: murine macrophages of J774.2 line; assay: MTT assay of cell viability; settings: Mus musculus, J774.2, 72 h
[11] = tested on: human embryonic kidney HEK293 cells; assay: MTT assay of cell viability; settings: HEK293, 72 h
[12] = tested on: HCT-116 (colon); assay: MTT assay of cell viability
[13] = tested on: BALB-3T3 (normal mouse fibroblasts); assay: MTT assay of cell viability; settings: BALB/3T3, 72 h
[14] = tested on: SK-OV-3 (ovarian); assay: MTT assay of cell viability; settings: Homo sapiens, SK-OV-3, 72 h
[15] = tested on: HL-60 cells of the acute human promyelocytic leukemia; assay: MTT assay of cell viability
[16] = tested on: panel of 60 cancer cell lines; assay: NCI DTP one-dose primary anticancer assay (10^-5 M, SRB); settings: 10 μM; for Range of Growth, %: 48 h, 60 cell lines; for Positive Cytostatic Effect: number of cell lines with percent growth from 0 to 50 / total number of cell lines; for Positive Cytotoxic Effect: number of cell lines with percent growth of <0 / total number of cell lines
Experimental: (§1) Primary anticancer assays (Table 3) on a panel of 60 cancer cell lines at one dose-assay (10^−5 M) were performed according to the NCI protocol, as described elsewhere [31, 32, 33, 34, 35].
(§2) A primary anticancer assay was performed on a panel of approximately sixty human tumor cell lines derived from nine neoplastic diseases, in accordance with the protocol of the Drug Evaluation Branch, National Cancer Institute, Bethesda [31, 32, 33, 34, 35]. Tested compounds were added to the culture at a single concentration (10^−5 M) and the cultures were incubated for 48 h. End point determinations were made with a protein binding dye, Sulphorhodamine B (SRB). […] The percentage growth was evaluated spectrophotometrically versus controls not treated with test agents.

[17] = tested on: K-562 (Leukemia); assay: NCI one-dose SRB assay; settings: 10 μM, 48 h
Experimental: as §1, §2

[18] = tested on: T-47D (Brest Cancer); assay: NCI one-dose SRB assay; settings: 10 μM, 48 h
Experimental: (§3) Tested compounds were added to the culture at a single concentration (10^−5 M) and the cultures were incubated for 48 h. End point determinations were made with a protein binding dye, Sulphorhodamine B (SRB). […] The percentage growth was evaluated spectrophotometrically versus controls not treated with test agents.

[19] = tested on: SR (Leukemia); assay: NCI one-dose SRB assay; settings: 10 μM, 48 h
Experimental: as §1, §2

[20] = tested on: SK Mel-5 (Melanoma); assay: NCI one-dose SRB assay; settings: 10 μM, 48 h
Experimental: as §3

[21] = tested on: panel of cancer cell lines; assay: MTT assay, summary over the tumor cell lines; settings: 72 h; for IC50: Homo sapiens, read-out: IC50 toward tumor cells (depending on tumor cell line)
[22] = tested on: pseudo-normal cell lines (HEK293, HaCaT); assay: MTT assay, summary over pseudo-normal cell lines; settings: Homo sapiens, 72 h, read-out: IC50 towards pseudo-normal cell lines
[23] = tested on: MCF-7 breast cancer cells; assay: Annexin V-FITC/PI binding assay (flow cytometry); settings: MCF-7, 5 µM, 24 h; control 4.4 ± 0.6%
Experimental: Annexin V-FITC and Propidium Iodide were used for apoptosis measurement.
Apoptosis was determined, as described [42], using Annexin V-FITC binding by means of the FITC Annexin V Apoptosis Detection Kit II(BD Biosciences, San Diego, CA, USA) according to the manufacturer’s instruction. Cells (10,000 cell measured) were analyzed in a BD FACSCanto II flow cytometer (BD Biosciences, San Diego, CA, USA). Annexin V binds with high affinity to phosphatidylserine, and thus, can be used to identify cells in all stages of the programmed cell death. Propidium iodide (PI) exclusively stains cells with a disrupted cell membrane and can be used to identify late apoptotic and dead cells. Cells cultured in a drug-free medium were used as controls. […] The contents of the test tubes were gently vortexed and incubated for 15 min at room temperature, protected from light. After the required time, the contents of the test tubes were made up to 500 µL with the Binding Buffer and immediately analyzed in a flow cytometer. The ratio of the apoptotic cells (early and late) was measured as: a percentage of cells from the upper right square (color red) to percentage of cells from the lower right square (color blue). Analysis was performed using the BD FACSCanto II flow cytometer, and the results were analyzed with FACSDiva software (both from BD Biosciences Systems, San Jose, CA, USA). […]

[24] = tested on: MCF-7 breast cancer cells; assay: Mitochondrial membrane potential, JC-1 (flow cytometry); format: cell-based, human; settings: MCF-7, 5 µM, 24 h, control 5.1 ± 0.7%
Experimental: A decrease in the mitochondrial membrane potential (MMP, ΔΨm) is one of the earliest changes observed at apoptosis. […] The MCF-7 cells had depolarized mitochondria, reaching 25.3 ± 1.5% and 24.7 ± 0.4% of the cell population treated with the compound 4 and 7, respectively. In the control, there were only 5.1 ± 0.7% cells with a decreased ΔΨm.
Disruption of the MMP was assessed using the lipophilic cationic probe 5,5,6,6-tetrachloro-1,1,3,3-tetraethylbenzimidazolcarbocyanine iodide (JC-1 MitoScreen kit; BD Biosciences San Diego, CA, USA), as described previously. The entire assay was performed according to the manufacturer’s instructions provided with the purchased kit. […] Briefly, unfixed MCF-7 cells were washed and resuspended in the PBS supplemented with the JC-1 dye. Then, cells were incubated for 15 min at room temperature (RT) in the dark, washed, and resuspended in the PBS for the immediate BD FACSCanto II flow cytometry analysis.

[25] = tested on: MDA-MB-468 (Brest Cancer); assay: NCI one-dose SRB assay; format: cell-based, human; settings: 10 μM, 48 h
[26] = tested on: HL-60(TB) (Leukemia); assay: NCI one-dose SRB assay; format: cell-based, human; settings: 10 μM, 48 h
[27] = tested on: NCI-H522 (Non-Small Cell Lung Cancer); assay: NCI one-dose SRB assay; settings: 10 μM, 48 h
Experimental: as §1, §2

[28] = tested on: CCRF-CEM (Leukemia); assay: NCI one-dose SRB assay; format: cell-based, human; settings: 10 μM, 48 h
[29] = tested on: MDA-MB-435 (Melanoma); assay: NCI one-dose SRB assay; format: cell-based, human; settings: 10 μM, 48 h
[30] = Homo sapiens, KB 3-1, 72 h, KB3-1, 72 h of incubation, M ± SD
[31] = Homo sapiens, MCF7, 72 h, MCF-7, 72 h of incubation, M ± SD
[32] = Homo sapiens, HCT-116, 72 h, HCT-116, 72 h of incubation, M ± SD
[33] = MCF-7, 72 h of incubation, M ± SD
[34] = HCT-116, 72 h of incubation, M ± SD
[35] = HL-60, 72 h of incubation, M ± SD

Compound	IC50 [2] [µM]	IC50 [5] [µM]	IC50 [8] [µM]	IC50 [9] [µM]	IC50 [10] [µM]	IC50 [11] [µM]	IC50 [13] [µM]	IC50 [14] [µM]	IC50 [6, 30] [µM]	IC50 [7, 31] [µM]	IC50 [12, 32] [µM]	also measured
O=C(c1cc(Cc2n[nH]c(=O)c3ccccc23)ccc1F)N1CCn2nc(C(F)(F)F)nc2C1 [Fluzoparib, reference compound]	–	–	–	–	–	–	–	–	–	–	–	IC50 [1]: 47 µM; reduction of cell viability ([1]; MCF-7, 5, 10 and 15 µM, compared to non-treated cells): 10–12%
COc1cccc2c1C(=O)c1c(O)c3c(c(O)c1C2=O)C[C@@](O)(C(=O)CO)C[C@@H]3O[C@H]1C[C@H](N)[C@H](O)[C@H](C)O1 [Doxorubicin, reference compound]	> 10	1.19 ± 1.3	2 ± 0.35	1.17 ± 0.12	1.74 ± 1.1	1.29 ± 0.87	3.18 ± 0.25	3.2 ± 0.1	–	–	–	morphological changes ([3]; KB3-1, 1 µM): induced cell membrane damage and membrane blebbing to a greater extent; ability of single cell to grow into a colony (compared with control) [4]: 3%; IC50 ([6]; Homo sapiens, KB 3-1, 72 h): 4 ± 1.3 µM; IC50 ([7]; Homo sapiens, MCF7, 72 h): 1.04 ± 0.8 µM; IC50 ([12]; Homo sapiens, HCT-116, 72 h): 0.9 ± 0.09 µM; IC50 ([15]; Homo sapiens, HL-60, 72 h): 0.38 ± 0.5 µM
CC(=O)N1N=C(c2sc(Nc3ccccn3)nc2C)CC1c1ccccc1F (stereo not drawn) [Compound 6, 1-{5-(2-Fluorophenyl)-3-[4-methyl-2-(2-pyridylamino)-thiazol-5-yl]-4,5-dihydropyrazol-1-yl}-ethanone]	> 50	29.1 ± 1.45	63.4 ± 3.81	> 100	> 50	–	–	39.6 ± 2.37	24.9 ± 0.74	45.4 ± 2.2	> 50	Range of Growth, % [16]: 12.53–95.32%; Positive Cytostatic Effect [16]: 32/59; Positive Cytotoxic Effect [16]: 0/59; Growth % [17]: 15.62%; Growth % [18]: 14.27%; Growth % [19]: 12.53%; Growth % [20]: 17.75%
Cc1nc(Nc2ccccn2)sc1C(=O)/C=C/c1ccccc1F [Compound 3, (E)-3-(2-Fluorophenyl)-1-[4-methyl-2-(2-pyridylamino)-thiazol-5-yl]-2-propen-1-one]	> 50	2.81 ± 0.16	4.56 ± 0.22	5.2 ± 0.1	> 50	> 50	7.18 ± 0.21	> 50	7.42 ± 0.22	–	–	IC50 [21]: 0.57 to 7.8 µM; IC50 ([1]; MCF-7, compound alone (no preincubation), 72 h MTT, read-out: IC50): 3.9 µM; morphological changes ([3]; KB3-1, 5 µM): significantly less DNA damage; IC50 [7, 33]: 1.86 ± 0.9 µM; IC50 [12, 34]: 2.9 ± 1.03 µM; IC50 [22]: > 50 µM; IC50 [15, 35]: 0.57 ± 0.35 µM
CC(=O)c1sc(Nc2ccccn2)nc1C [Compound 2, 1-[4-Methyl-2-(2-pyridylamino)thiazol-5-yl]ethanone]	> 50	> 50	> 50	> 50	> 50	–	–	> 50	38 ± 1.9	> 50	> 50	IC50 [21]: > 50 µM
CS(=O)(=O)O.Cc1nc(Nc2ccccn2)sc1C(=O)/C=C/c1ccccc1F [Compound 7, (E)-3-(2-Fluorophenyl)-1-[4-methyl-2-(pyridin-1-ium-2-ylamino)thiazol-5-yl]-2-propen-1-one Methanesulfonate]	–	–	–	–	–	–	–	–	–	–	–	apoptotic cells (sum of early and late apoptotic cells) [23]: 31.0 ± 1.9%; IC50 toward tumor cells (depending on tumor cell line) ([21]; summary over tumor cell lines, MTT): acted more weakly compared with 3 and 4; cells with depolarized mitochondria (decreased ΔΨm) [24]: 24.7 ± 0.4%; IC50 ([6]; KB3-1, 72 h of incubation, M ± SD): 3.96 ± 1.23 µM; IC50 [7, 33]: 4.3 ± 0.98 µM; IC50 [12, 34]: 7.27 ± 0.27 µM; IC50 [15, 35]: > 10 µM
Cc1nc(Nc2ccccn2)sc1C1=NNC(c2ccccc2F)C1 (stereo not drawn) [Compound 5, {5-[5-(2-Fluorophenyl)-4,5-dihydro-1H-pyrazol-3-yl]-4-methylthiazol-2-yl}-(pyridin-2-yl)-amine]	> 50	34.5 ± 1.02	33.1 ± 1.32	> 50	> 50	45.4 ± 2.26	34.2 ± 1.7	> 50	13.1 ± 0.52	> 50	> 50	Growth % [25]: −13.74%; Range of Growth, % [16]: −18.90–118.83%; Positive Cytostatic Effect [16]: 25/60; Positive Cytotoxic Effect [16]: 3/60; Growth % [26]: 4.96%; Growth % [17]: 15.13%; Growth % [27]: −18.90%; Growth % [19]: 12.44%; Growth % [28]: 19.12%; Growth % [29]: −17.91%
N.N.[Cl][Pt][Cl] [cisplatin, reference compound]	–	–	–	–	–	–	–	–	–	–	–	morphological changes ([3]; KB3-1, 5 µM): significantly less DNA damage
